Test results as given in US9394299B2, “Rilyazine derivatives and compositions for the treatment of cancer” (Warner Babcock Institute for Green Chemistry, LLC, priority 2013, dated 2016).
“Also recorded” adds a separate entry of the source. Like-named read-outs stand apart in the source and are kept apart here.

System: 60 cell lines (human tumor cell lines of the cancer screening panel)
Experiment: NCI 60 cell line screening, single point dosing at 10 μM (SRB)
Format: cell-based
Conditions: for GI50: Homo sapiens, read-out: GI50 (NCI Results, single point, 10 μM); for Delta of Growth Percent across all cell lines / Mean Growth Percent across all cell lines: single dose 10^−5 M
Experimental: The screening is a two-stage process, beginning with the evaluation of all compounds against 60 cell lines at a single dose of 10^−5 M.
The human tumor cell lines of the cancer screening panel are grown in RPMI 1640 medium containing 5% fetal bovine serum and 2 mM L-glutamine. Cells are inoculated into 96 well microtiter plates in 100 μL at plating densities ranging from 5,000 to 40,000 cells/well depending on the doubling time of individual cell lines. After cell inoculation, the microtiter plates are incubated at 37° C., 5% CO2, 95% air and 100% relative humidity for 24 h prior to addition of experimental drugs.
After 24 h, two plates of each cell line are fixed in situ with TCA, to represent a measurement of the cell population for each cell line at the time of drug addition Time Zero (Tz). Experimental drugs are solubilized in dimethyl sulfoxide:glycerol 9:1 at 400-fold the desired final maximum test concentration and stored frozen at −70° C. prior to use. At the time of drug addition, an aliquot of frozen concentrate is thawed and diluted to twice the desired final maximum test concentration with complete medium containing 50 μg/ml gentamicin. Additional four, 10-fold or ½ log serial dilutions are made to provide a total of five drug concentrations plus control. Aliquots of 100 μl of these different drug dilutions are added to the appropriate microtiter wells already containing 100 μl of medium, resulting in the required final drug concentrations.
Positive control is prepared by adding the known anti-tumor agent adriamycin, NSC 123127, prepared and stored the same as the compounds for testing.
Following drug addition, the plates are incubated for an additional 48 h at 37° C., 5% CO2, 95% air, and 100% relative humidity. For adherent cells, the assay is terminated by the addition of cold TCA. Cells are fixed in situ by the gentle addition of 50 μl of cold 50% (w/v) TCA (final concentration, 10% TCA) and incubated for 60 minutes at 4° C. The supernatant is discarded, and the plates are washed five times with tap water and air dried. Sulforhodamine B (SRB) solution (100 μl) at 0.4% (w/v) in 1% acetic acid is added to each well, and plates are incubated for 10 minutes at room temperature. After staining, unbound dye is removed by washing five times with 1% acetic acid and the plates are air dried. Bound stain is subsequently solubilized with 10 mM trizma base, and the absorbance is read on an automated plate reader at a wavelength of 515 nm. For suspension cells, the methodology is the same except that the assay is terminated by fixing settled cells at the bottom of the wells by gently adding 50 μl of 80% TCA (final concentration, 16% TCA).
For the 1-dose 60 cell testing, the Growth Percent is calculated for each cell line/drug combination from the absorbance measurement for the no-drug control (C), the absorbance at time zero (Tz) and the absorbance measurement after incubation of the cells in the presence of drug (Ti): Growth Percent=[(Ti−Tz)/(C−Tz)]×100 for cell line/drug combinations for which Ti≧Tz. Growth Percent=[(Ti−Tz)/Tz]×100 for cell line/drug combinations for which Ti<Tz.
Calculation of the Growth Percent by these equations allows detection of both growth inhibition (Growth Percent values between 0 and 100) and lethality (Growth Percent values less than 0). For example, a Growth Percent value of 100 means no growth inhibition. A Growth Percent value of 40 would mean 60% growth inhibition. A Growth Percent value of 0 means no net growth over the course of the experiment, or “cytostatic”, no change by growth or cell death. A Growth Percent value of −40 would mean 40% lethality. A Growth Percent value of −100 means all cells are dead.
For 1-dose 60 cell testing, the Mean Growth Percent, Delta and Range across all 60 cell lines are also calculated. The Deviation of each cell line/drug combination from the Mean is also calculated and plotted: Deviation=Mean Growth Percent−Growth Percent […]

[1] = single point 10 μM, 60 cell lines

Row | SMILES | GI50 [1] | Delta of Growth Percent across all cell lines (60 cell lines) | Mean Growth Percent across all cell lines (60 cell lines) | anti-proliferative effect / growth inhibition (in words) [1] | GI50 (60 cell)
1 | S=c1c2cccnc2c(-c2ccccn2)nn1C1CCCCC1 [RL-2, 6-cyclohexyl-8-(pyridin-2-yl)pyrido[2,3-d]pyridazine-5(6H)-thione] | > 10 µM | 30.65 | 99.96% | little to no effect on cell growth; also recorded: little to no appreciable anti-proliferative effects | –
2 | O=c1c2ncccc2c(-c2ccccn2)nn1C1CCCCC1 [RL-3, 7-Cyclohexyl-5-(pyridin-2-yl)pyrido[2,3-d]pyridazin-8(7H)-one] | – | 24.63 | 101.11% | little to no effect on cell growth; also recorded: little to no appreciable anti-proliferative effects | > 10 µM
3 | O=c1c2cccnc2c(-c2ccccn2)nn1C1CCCCC1 [RL-1, 6-cyclohexyl-8-(pyridin-2-yl)pyrido[2,3-d]pyridazin-5(6H)-one] | – | 11.75 | 104.31% | little to no effect on cell growth; also recorded: little to no appreciable anti-proliferative effects | > 10 µM
